Among the data in patent US10570184B2, “GLP-1/glucagon receptor co-agonists for medical use” (Novo Nordisk A/S, priority 2014, dated 2020) are IC50 values, retold here.

Starred links: 1 amine or outer side, 2 acyl side, 3 side chain; linkers in the order of their positions; H or OH if unused. Non-standard residues stand in square brackets, D forms with d. Residues, ends and D or L forms follow the SMILES beside them. Groups on a side chain read outwards from the residue. *: point of attachment. C18 diacid = O=C(O)CCCCCCCCCCCCCCCCC(=O)*; γGlu = O=C(O)[C@H](CCC(=O)[*:2])N[*:1]; Ac4c = NC1(C(=O)O)CCC1; AEEA = NCCOCCOCC(=O)O

For this assay, the target named is T1, human glucagon receptor (Homo sapiens, UniProt P47871).
T1 construct: expressed in transfected cells; host or cells: membranes of BHK cells, clone BHK hGCGR A3*25
T1 sequence (P47871 26-477): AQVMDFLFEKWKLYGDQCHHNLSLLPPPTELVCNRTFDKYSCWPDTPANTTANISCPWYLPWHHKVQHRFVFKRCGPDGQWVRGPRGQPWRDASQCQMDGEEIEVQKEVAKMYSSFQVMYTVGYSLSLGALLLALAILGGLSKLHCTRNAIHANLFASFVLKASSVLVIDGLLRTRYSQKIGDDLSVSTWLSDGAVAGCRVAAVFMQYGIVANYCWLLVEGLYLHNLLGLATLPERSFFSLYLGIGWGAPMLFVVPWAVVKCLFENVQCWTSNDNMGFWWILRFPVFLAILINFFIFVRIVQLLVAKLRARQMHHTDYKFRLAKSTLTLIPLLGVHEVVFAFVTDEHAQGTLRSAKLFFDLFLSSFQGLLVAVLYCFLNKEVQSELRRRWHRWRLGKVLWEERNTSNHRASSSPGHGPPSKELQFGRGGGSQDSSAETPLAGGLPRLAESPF
Description: Assay (II)(b) glucagon receptor binding, 125I-glucagon displacement SPA on BHK membranes. Conditions: without presence of serum albumin; read-out: GlucagonR IC50 (nM) [Assay (II)(b)]. Here is the method: The glucagon receptor (glucagonR) binding activity is a measure of affinity of a derivative for the human glucagon receptor. The receptor binding of each compound to the human glucagon receptor was measured in a displacement binding assay. In this type of assay a labelled ligand (in this case 125I-glucagon) is bound to the receptor. Each derivative was added in a series of concentrations to isolated membranes containing the human glucagon receptor and displacement of the labelled ligand is monitored. The receptor binding was reported as the concentration at which half of the labelled ligand is displaced from the receptor, the IC50 value. In order to test the binding of the derivatives to albumin, the assay may be performed in a very low concentration of serum albumin (max. 0.001% final assay concentration) as well as in the presence of a higher concentration of serum albumin (0.2% final assay concentration). An increase of the IC50 value, in the presence of serum albumin indicates an affinity to serum albumin and represents a method to predict a protracted pharmacokinetic profile of the test substance in animal models. […] The protein concentration was determined. […]

The term IC50 denotes the concentration that inhibits the measured activity by half.

As to `CC[C@H](C)[C@H](NC(=O)[C@H](CC(C)C)NC(=O)[C@H](Cc1c[nH]c2ccccc12)NC(=O)[C@H](CCC(N)=O)NC(=O)[C@@H](NC(=O)[C@H](Cc1ccccc1)NC(=O)[C@H](CCC(=O)O)NC(=O)[C@H](CCCNC(=N)N)NC(=O)[C@H](C)NC(=O)[C@H](CCCNC(=N)N)NC(=O)[C@H](CCCNC(=N)N)NC(=O)[C@H](CO)NC(=O)[C@H](CCC(=O)O)NC(=O)[C@H](CC(C)C)NC(=O)[C@H](Cc1ccc(O)cc1)NC(=O)[C@H](CCCCN)NC(=O)[C@H](CO)NC(=O)[C@H](CC(C)C)NC(=O)[C@H](CC(=O)O)NC(=O)[C@H](CO)NC(=O)[C@@H](NC(=O)[C@H](Cc1ccccc1)NC(=O)[C@@H](NC(=O)CNC(=O)[C@H](CCC(N)=O)NC(=O)C1(NC(=O)[C@@H](N)Cc2c[nH]cn2)CCC1)[C@@H](C)O)[C@@H](C)O)C(C)C)C(=O)N[C@@H](CCCCNC(=O)CNC(=O)[C@H](CO)NC(=O)[C@H](CCC(=O)O)NC(=O)CNC(=O)[C@H](CO)NC(=O)CC[C@H](NC(=O)CC[C@H](NC(=O)CCCCCCCCCCCCCCCCC(=O)O)C(=O)O)C(=O)O)C(=O)N[C@H](C(N)=O)[C@@H](C)O` [Chem. 16, N^ε28-[2-[[(2S)-2-[[(2S)-4-carboxy-2-[[2-[[(2S)-2-[[(4S)-4-carboxy-4-[[(4S)-4-carboxy-4-(17-carboxyheptadecanoylamino)butanoyl]amino]butanoyl]amino]-3-hydroxypropanoyl]amino]acetyl]amino]butanoyl]amino]-3-hydroxypropanoyl]amino]acetyl]-[Acb2,Leu10,Glu15,Arg20,Glu21,Ile27,Lys28]-Glucagon amide] (HELM PEPTIDE1{H.[O=C(C1(N[*:1])CCC1)[*:2]].Q.G.T.F.T.S.D.L.S.K.Y.L.E.S.R.R.A.R.E.F.V.Q.W.L.I.K.T.[am]}|PEPTIDE2{[O=C(O)CCCCCCCCCCCCCCCCC(=O)[*:2]].[gGlu].[gGlu].S.G.E.S.G}$PEPTIDE1,PEPTIDE2,28:R3-8:R2$$$V2.0), the IC50 amounted to 2.7 nM.

As for `CC[C@H](C)[C@H](NC(=O)[C@H](CC(C)C)NC(=O)[C@H](Cc1c[nH]c2ccccc12)NC(=O)[C@H](CCC(N)=O)NC(=O)[C@@H](NC(=O)[C@H](Cc1ccccc1)NC(=O)[C@H](CCC(=O)O)NC(=O)[C@H](CCC(N)=O)NC(=O)[C@H](C)NC(=O)[C@H](CCCNC(=N)N)NC(=O)[C@H](CCCNC(=N)N)NC(=O)[C@H](CO)NC(=O)[C@H](CCC(=O)O)NC(=O)[C@H](CC(C)C)NC(=O)[C@H](Cc1ccc(O)cc1)NC(=O)[C@H](CCCCN)NC(=O)[C@H](CO)NC(=O)[C@H](CC(C)C)NC(=O)[C@H](CC(=O)O)NC(=O)[C@H](CO)NC(=O)[C@@H](NC(=O)[C@H](Cc1ccccc1)NC(=O)[C@@H](NC(=O)CNC(=O)[C@H](CCC(N)=O)NC(=O)C1(NC(=O)[C@@H](N)Cc2c[nH]cn2)CCC1)[C@@H](C)O)[C@@H](C)O)C(C)C)C(=O)N[C@@H](CCCCNC(=O)CC[C@H](NC(=O)COCCOCCNC(=O)COCCOCCNC(=O)CC[C@H](NC(=O)CC[C@H](NC(=O)CCCCCCCCCCCCCCCCC(=O)O)C(=O)O)C(=O)O)C(=O)O)C(=O)N[C@H](C(N)=O)[C@@H](C)O` [Chem. 38, N^ε28-[(4S)-4-carboxy-4-[[2-[2-[2-[[2-[2-[2-[[(4S)-4-carboxy-4-[[(4S)-4-carboxy-4-(17-carboxyheptadecanoylamino)butanoyl]amino]butanoyl]amino]ethoxy]ethoxy]acetyl]amino]ethoxy]ethoxy]acetyl]amino]butanoyl]-[Acb2,Leu10,Glu15,Glu21,Ile27,Lys28]-Glucagon amide] (H-H[Ac4c]QGTFTSDLSKYLESRRAQEFVQWLIK([γGlu-AEEA-AEEA-γGlu-γGlu-C18 diacid])T-NH2; N-terminus assumed), the IC50 was determined as 2.7 nM.
